Consider 13 compounds from patent US12448399B2, “Cereblon-based KRAS degrading PROTACs and uses related thereto” (Arvinas Operations, Inc., priority 2023, dated 2025).

The target of this experiment is T1, KRas-G12D (Homo sapiens, UniProt P01116, G12D).
T1 construct: insert the HiBiT tag onto the N-terminus of one or more of the endogenous KRas alleles; host or cells: AsPC-1 HiBiT-KRasG12D knock-in clone (one tagged allele, two untagged KRasG12D alleles)
The experiment can be described thus: HiBiT Degradation Assay (G12D), AsPC-1 HiBiT-KRasG12D cells, 24 hr. Particulars: for Dmax: ASPC1, AsPC-1 cells, maximum degradation observed; for DC50: AsPC-1 cells. It counts as cell-based. The gist of the method: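 AsPC-1 cells with CRISPR N-terminal HiBiT knock-in on one endogenous KRasG12D allele, treated 24 hr at 37° C with compound titrations in 0.5% DMSO. Lytic HiBiT luminescence normalized to DMSO, fitted to a 4-parameter model for DC50 and Dmax. Parallel alamar blue (4 hr) checked viability.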

T1 sequence (P01116 1-188 isoform P01116-2 G12D): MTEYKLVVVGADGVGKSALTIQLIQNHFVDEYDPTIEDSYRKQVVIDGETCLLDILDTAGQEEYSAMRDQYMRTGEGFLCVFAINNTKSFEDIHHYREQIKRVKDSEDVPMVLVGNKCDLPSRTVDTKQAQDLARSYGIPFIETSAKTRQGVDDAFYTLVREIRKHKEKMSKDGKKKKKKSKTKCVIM

As to `CCc1c(F)ccc2cc(O)cc(-c3ncc4c(N5CC6CCC(C5)N6)nc(OCCN5CCC(CC6CCN(CC7CCN(c8ccc9c(c8)n(C)c(=O)n9C8CCC(=O)NC8=O)CC7)CC6)CC5)nc4c3F)c12` (stereo not shown) [Compound 205, 3-{5-[4-({4-[(1-{2-[(4-{3,8-diazabicyclo[3.2.1]octan-3-yl}-7-(8-ethyl-7-fluoro-3-hydroxynaphthalen-1-yl)-8-fluoropyrido[4,3-d]pyrimidin-2-yl)oxy]ethyl}piperidin-4-yl)methyl]piperidin-1-yl}methyl)piperidin-1-yl]-3-methyl-2-oxo-2,3-dihydro-1H-1,3-benzodiazol-1-yl}piperidine-2,6-dione], the Dmax (commonly the largest share of the target that was removed) is above 70% and the DC50 – broadly, the midpoint of the concentration-degradation curve – was below 5.1 µM.
`C#Cc1c(F)ccc2cc(O)cc(-c3ncc4c(N5CC6CCC(C5)N6)nc(OCCN5CCC(CC6CCN(CC7CCN(c8ccc9c(c8F)n(C)c(=O)n9C8CCC(=O)NC8=O)CC7)CC6)CC5)nc4c3F)c12` (stereo not shown) [Compound 206, 3-{5-[4-({4-[(1-{2-[(4-{3,8-diazabicyclo[3.2.1]octan-3-yl}-7-(8-ethynyl-7-fluoro-3-hydroxynaphthalen-1-yl)-8-fluoropyrido[4,3-d]pyrimidin-2-yl)oxy]ethyl}piperidin-4-yl)methyl]piperidin-1-yl}methyl)piperidin-1-yl]-4-fluoro-3-methyl-2-oxo-2,3-dihydro-1H-1,3-benzodiazol-1-yl}piperidine-2,6-dione] registered a Dmax above 70% and a DC50 below 5.1 µM.
In turn, `CCc1c(F)ccc2cc(O)cc(-c3ncc4c(N5CC6CCC(C5)N6)nc(OC[C@@H]5C[C@@H](OC6CCN(CC7CCN(c8ccc9c(c8)n(C)c(=O)n9C8CCC(=O)NC8=O)CC7)CC6)CN5C)nc4c3F)c12` (stereo partly drawn) [Compound 207, 3-(5-{4-[(4-{[(3R,5S)-5-{[(4-{3,8-diazabicyclo[3.2.1]octan-3-yl}-7-(8-ethyl-7-fluoro-3-hydroxynaphthalen-1-yl)-8-fluoropyrido[4,3-d]pyrimidin-2-yl)oxy]methyl}-1-methylpyrrolidin-3-yl]oxy}piperidin-1-yl)methyl]piperidin-1-yl}-3-methyl-2-oxo-2,3-dihydro-1H-1,3-benzodiazol-1-yl)piperidine-2,6-dione] showed a Dmax above 70% and a DC50 below 5.1 µM.
`C#Cc1c(F)ccc2cc(O)cc(-c3ncc4c(N5CC6CCC(C5)N6)nc(OC[C@]56CCCN5[C@H](CN5CCN(CC7CCN(c8ccc9c(c8)n(C(C)C)c(=O)n9C8CCC(=O)NC8=O)CC7)CC5)CC6)nc4c3F)c12` (stereo partly drawn) [Compound 208, 3-[5-[4-[[4-[[(3S,8R)-8-[[4-(3,8-diazabicyclo[3.2.1]octan-3-yl)-7-(8-ethynyl-7-fluoro-3-hydroxy-1-naphthyl)-8-fluoro-pyrido[4,3-d]pyrimidin-2-yl]oxymethyl]-1,2,3,5,6,7-hexahydropyrrolizin-3-yl]methyl]piperazin-1-yl]methyl]-1-piperidyl]-3-isopropyl-2-oxo-benzimidazol-1-yl]piperidine-2,6-dione] came in with a Dmax above 70% and a DC50 below 5.1 µM.
For the compound `CCc1c(F)ccc2cc(O)cc(-c3ncc4c(N5CC6CCC(C5)N6)nc(OC[C@@H]5C[C@@H](OC6CCN(CC7CCN(c8ccc9c(c8)n(C(C)C)c(=O)n9C8CCC(=O)NC8=O)CC7)CC6)CN5C)nc4c3F)c12` (stereo partly drawn) [Compound 209, 3-(5-{4-[(4-{[(3R,5S)-5-{[(4-{3,8-diazabicyclo[3.2.1]octan-3-yl}-7-(8-ethyl-7-fluoro-3-hydroxynaphthalen-1-yl)-8-fluoropyrido[4,3-d]pyrimidin-2-yl)oxy]methyl}-1-methylpyrrolidin-3-yl]oxy}piperidin-1-yl)methyl]piperidin-1-yl}-2-oxo-3-(propan-2-yl)-2,3-dihydro-1H-1,3-benzodiazol-1-yl)piperidine-2,6-dione], the Dmax is above 70% and the DC50 was below 5.1 µM.
On to `C#Cc1c(F)ccc2cc(O)cc(-c3ncc4c(N5CC6CCC(C5)N6)nc(OCC5(CN6CCC(CC7CCN(c8ccc9c(c8)n(C)c(=O)n9C8CCC(=O)NC8=O)CC7)CC6)CC5)nc4c3F)c12` (stereo not shown) [Compound 210, 3-{5-[4-({1-[(1-{[(4-{3,8-diazabicyclo[3.2.1]octan-3-yl}-7-(8-ethynyl-7-fluoro-3-hydroxynaphthalen-1-yl)-8-fluoropyrido[4,3-d]pyrimidin-2-yl)oxy]methyl}cyclopropyl)methyl]piperidin-4-yl}methyl)piperidin-1-yl]-3-methyl-2-oxo-2,3-dihydro-1H-1,3-benzodiazol-1-yl}piperidine-2,6-dione], for which the maximal degradation (Dmax) is above 70% and the DC50 was below 5.1 µM.
Turning to `C#Cc1c(F)ccc2cc(O)cc(-c3ncc4c(N5CC6CCC(C5)N6)nc(OC[C@@H]5CC[C@@H](CN6CCN(CC7CCN(c8ccc9c(c8)n(C(C)C)c(=O)n9C8CCC(=O)NC8=O)CC7)CC6)N5C)nc4c3F)c12` (stereo partly drawn) [Compound 211, 3-(5-{4-[(4-{[(2S,5S)-5-{[(4-{3,8-diazabicyclo[3.2.1]octan-3-yl}-7-(8-ethynyl-7-fluoro-3-hydroxynaphthalen-1-yl)-8-fluoropyrido[4,3-d]pyrimidin-2-yl)oxy]methyl}-1-methylpyrrolidin-2-yl]methyl}piperazin-1-yl)methyl]piperidin-1-yl}-2-oxo-3-(propan-2-yl)-2,3-dihydro-1H-1,3-benzodiazol-1-yl)piperidine-2,6-dione], the DC50 is below 5.1 µM.
In the case of `CCc1c(F)ccc2cc(O)cc(-c3ncc4c(N5CC6CCC(C5)N6)nc(OCCN5CCC(CC6CCN(CC7CCN(c8ccc9c(c8)n(C(C)C)c(=O)n9C8CCC(=O)NC8=O)CC7)CC6)CC5)nc4c3F)c12` (stereo not shown) [Compound 212, 3-{5-[4-({4-[(1-{2-[(4-{3,8-diazabicyclo[3.2.1]octan-3-yl}-7-(8-ethyl-7-fluoro-3-hydroxynaphthalen-1-yl)-8-fluoropyrido[4,3-d]pyrimidin-2-yl)oxy]ethyl}piperidin-4-yl)methyl]piperidin-1-yl}methyl)piperidin-1-yl]-2-oxo-3-(propan-2-yl)-2,3-dihydro-1H-1,3-benzodiazol-1-yl}piperidine-2,6-dione], the Dmax was above 70% and the DC50 is below 5.1 µM.
Taken in the same sequence, the figures for `C#Cc1c(F)ccc2cc(O)cc(-c3ncc4c(N5CC6CCC(C5)N6)nc(OC[C@@H]5C[C@@H](OC6CCN(CC7CCN(c8ccc9c(c8F)n(C)c(=O)n9C8CCC(=O)NC8=O)CC7)CC6)CN5C)nc4c3F)c12` (stereo partly drawn) [Compound 213, 3-(5-{4-[(4-{[(3R,5S)-5-{[(4-{3,8-diazabicyclo[3.2.1]octan-3-yl}-7-(8-ethynyl-7-fluoro-3-hydroxynaphthalen-1-yl)-8-fluoropyrido[4,3-d]pyrimidin-2-yl)oxy]methyl}-1-methylpyrrolidin-3-yl]oxy}piperidin-1-yl)methyl]piperidin-1-yl}-4-fluoro-3-methyl-2-oxo-2,3-dihydro-1H-1,3-benzodiazol-1-yl)piperidine-2,6-dione] were above 70% and below 5.1 µM.
As to `C#Cc1c(F)ccc2cc(O)cc(-c3ncc4c(N5CC6CCC(C5)N6)nc(OCCN5CCC(CC6CCN(CC7CCN(c8ccc9c(c8F)CN([C@H]8CCC(=O)NC8=O)C9=O)CC7)CC6)CC5)nc4c3F)c12` [Compound 214, (3S)-3-{5-[4-({4-[(1-{2-[(4-{3,8-diazabicyclo[3.2.1]octan-3-yl}-7-(8-ethynyl-7-fluoro-3-hydroxynaphthalen-1-yl)-8-fluoropyrido[4,3-d]pyrimidin-2-yl)oxy]ethyl}piperidin-4-yl)methyl]piperidin-1-yl}methyl)piperidin-1-yl]-4-fluoro-1-oxo-2,3-dihydro-1H-isoindol-2-yl}piperidine-2,6-dione], the Dmax was above 70% and the DC50 was below 5.1 µM.
In turn, `C#Cc1c(F)ccc2cc(O)cc(-c3ncc4c(N5CC6CCC(C5)N6)nc(OCCN5CCC(CC6CCN(CC7CCN(c8ccc9c(c8)CN([C@H]8CCC(=O)NC8=O)C9=O)CC7)CC6)CC5)nc4c3F)c12` [Compound 215, (3S)-3-{5-[4-({4-[(1-{2-[(4-{3,8-diazabicyclo[3.2.1]octan-3-yl}-7-(8-ethynyl-7-fluoro-3-hydroxynaphthalen-1-yl)-8-fluoropyrido[4,3-d]pyrimidin-2-yl)oxy]ethyl}piperidin-4-yl)methyl]piperidin-1-yl}methyl)piperidin-1-yl]-1-oxo-2,3-dihydro-1H-isoindol-2-yl}piperidine-2,6-dione] displayed a Dmax above 70% and a DC50 below 5.1 µM.
`C#Cc1c(F)ccc2cc(O)cc(-c3ncc4c(N5CC6CCC(C5)N6)nc(OCCN5CCC(CC6CCN(CC7CCN(c8ccc9c(c8)CN([C@@H]8CCC(=O)NC8=O)C9=O)CC7)CC6)CC5)nc4c3F)c12` [Compound 216, (3R)-3-{5-[4-({4-[(1-{2-[(4-{3,8-diazabicyclo[3.2.1]octan-3-yl}-7-(8-ethynyl-7-fluoro-3-hydroxynaphthalen-1-yl)-8-fluoropyrido[4,3-d]pyrimidin-2-yl)oxy]ethyl}piperidin-4-yl)methyl]piperidin-1-yl}methyl)piperidin-1-yl]-1-oxo-2,3-dihydro-1H-isoindol-2-yl}piperidine-2,6-dione] gave a Dmax above 70% and a DC50 below 5.1 µM.
As to `C#Cc1c(F)ccc2cc(O)cc(-c3ncc4c(N5CC6CCC(C5)N6)nc(OCCN5CCC(CC6CCN(CC7CCN(c8ccc9c(c8F)n(C(C)C)c(=O)n9C8CCC(=O)NC8=O)CC7)CC6)CC5)nc4c3F)c12` (stereo not shown) [Compound 217, 3-{5-[4-({4-[(1-{2-[(4-{3,8-diazabicyclo[3.2.1]octan-3-yl}-7-(8-ethynyl-7-fluoro-3-hydroxynaphthalen-1-yl)-8-fluoropyrido[4,3-d]pyrimidin-2-yl)oxy]ethyl}piperidin-4-yl)methyl]piperidin-1-yl}methyl)piperidin-1-yl]-4-fluoro-2-oxo-3-(propan-2-yl)-2,3-dihydro-1H-1,3-benzodiazol-1-yl}piperidine-2,6-dione], the Dmax was above 70% and the DC50 is below 5.1 µM.
